Results on 19 molecules are retold here after patent US20240166686A1, “THERAPEUTIC PEPTIDES” (Kyoto University, priority 2017, published 2024).

Like-named read-outs stand apart in the source and are kept apart here.

The test system of one test is ddY mouse. Kind of test: Elevated plus-maze (EPM) test. The test is classed as in vivo. Here is the method:
The test was conducted 30 minutes after oral administration of a sample, and the evaluation was conducted based on the 5-minute test time. 23 to 27 g male ddY mice were used as animals to be studied. Cumulative time in open arms was recorded, and the percentage (%) of the time in open arms was used as an index for an anxiolytic-like effect.
The anxiolytic-like effect of a peptide or peptide conjugate can be evaluated by an elevated plus-maze test which has been developed as an anxiety-related behavior evaluation method for screening for anti-anxiety agents and is widely used (FIG. 1). Specifically, a candidate substance is orally or intraperitoneally administered to each mouse. 30 minutes later, the mouse is placed in an elevated plus-maze. The strength of the anxiolytic-like effect can be evaluated by using the number of entries into open arms and change in residence time in the open arms as indexes.
(§1) The elevated plus-maze consists of two open arms (25 cm×5 cm) and two closed arms (25 cm×5 cm×15 cm), and these arms are connected to a central platform elevated by 50 cm from the floor (see FIG. 1). In spite of such an elevated position, mice can walk safely in the closed arms because the closed arms are fenced. On the other hand, mice waking in the open arms feel anxious about falling from the elevated position because the open arms are open without being fenced. Therefore, a longer time when a mouse stays in the open arms means that mouse's feeling of anxiety is more alleviated, and serves as an index for an anxiolytic-like effect.
(§2) As shown in the right diagram of FIG. 1, a sample was administered to each mouse (ddY mouse, male, 23 to 27 g) 30 minutes before the test. 30 minutes later, the mouse was placed on the central platform facing one of the open arms to start the test. Cumulative time in the open arms was recorded during the 5-minute test time. The percentage of the time in the open arms was calculated as an index for an anxiolytic-like effect.
The data obtained by the test was indicated by the sum of a mean and a standard error of the mean (SEM). The data shown in FIGS. 1 to 9, 17, 18, 20, and 21 was analyzed by one-way or two-way ANOVA. Subsequently, study was conducted for multiple comparison by the Tukey Kramer method. P-value of <0.05 is denoted in the drawings as “*”; p-value of <0.01 is denoted in the drawings as “**”.

Test [1] relates to ddY mice. Conditions: general statement on anti-depressant drugs; cited from earlier work.
The conditions of test [2]: stated in Non Patent Literature 1; cited from earlier work.
For test [3], the target named is T1, serotonin 5-HT1A receptor (Mus musculus, UniProt Q64264).
T1 construct: from tissue; host or cells: whole living animal (ddY mouse, male)
T1 sequence (Q64264 1-421): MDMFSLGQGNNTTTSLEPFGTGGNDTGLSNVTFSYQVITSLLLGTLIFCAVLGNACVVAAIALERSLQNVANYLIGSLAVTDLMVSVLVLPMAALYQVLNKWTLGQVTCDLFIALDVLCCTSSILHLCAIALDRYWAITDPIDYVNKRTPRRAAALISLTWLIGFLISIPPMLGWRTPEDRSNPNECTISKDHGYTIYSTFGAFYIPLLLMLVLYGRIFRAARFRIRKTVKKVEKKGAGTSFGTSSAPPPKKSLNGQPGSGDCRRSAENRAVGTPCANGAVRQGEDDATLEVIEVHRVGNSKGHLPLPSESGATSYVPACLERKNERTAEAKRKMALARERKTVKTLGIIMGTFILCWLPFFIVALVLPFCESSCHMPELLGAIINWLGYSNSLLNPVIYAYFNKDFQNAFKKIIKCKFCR
Briefly: Elevated plus-maze test with 5-HT1A receptor antagonist WAY100135. The test is classed as in vivo. Conditions: elevated plus-maze with or without WAY100135.
From the text: as §1, §2
The peptide SYLPPLTT (SEQ ID NO: 1) or the peptide SYLPPLT (SEQ ID NO: 4) (dose: 1.0 mg/kg) was used in combination with a serotonin 5-HT1A receptor antagonist WAY100135 (dose: 10 mg/kg) and orally administered (p.o.) to each mouse, which was then used in the elevated plus-maze test (n=4 to 6).
The peptide YHIEPV (SEQ ID NO:2) was orally administered as a sample to mice 30 minutes before an elevated plus-maze test, with or without WAY100135, an antagonist selective for 5-HT1A receptor (n=13-15). WAY100135 was administered 50 minutes before the elevated plus-maze test. Separately, the peptide YHIEPV (SEQ ID NO:2) was orally administered as a sample to mice 30 minutes before an elevated plus-maze test, with or without naltrindole, an […] receptor antagonist, which was administered 50 minutes before the elevated plus-maze test (n=11-15).

The subject of test [4] is ddY mice. Briefly: Tail suspension test. It counts as in vivo, mouse. The conditions noted are these: 30 min before 6-min suspension. How it is done: Antidepressant-like effect can be evaluated by a tail suspension test. The tail suspension test is an experimental method used to screen potential antidepressant drugs (Can et al., 2012, J Vis Exp., 59:e3769). The amount of time that a mouse is immobile (i.e. is not displaying escape behavior) during the six minutes is measured to provide an immobility time. […] Therefore, if a reduction of immobility time is observed when testing a test substance, it can be concluded that the test substance has anti-depressant properties. Immobility is considered a despair state, and, therefore, a reduction of immobility time also indicates an increase in motivation (i.e., that the test substance has motivation-increasing properties).
The peptide SYLPPLT (SEQ ID NO: 4) was administered orally to mice (ddY mice, males, 24˜30 g) at 0.03 mg/kg, 0.1 mg/kg or 0.3 mg/kg and 30 minutes later the mice were suspended by their tails for six minutes.(n=11 to 14)

The next test deals with T2, δ opioid receptor (Mus musculus, UniProt P32300).
T2 construct: orally administered as a sample to mice 30 minutes before an elevated plus-maze test, with or without naltrindole; from tissue; host or cells: whole living animal (ddY mouse, male)
T2 sequence (P32300 whole entry): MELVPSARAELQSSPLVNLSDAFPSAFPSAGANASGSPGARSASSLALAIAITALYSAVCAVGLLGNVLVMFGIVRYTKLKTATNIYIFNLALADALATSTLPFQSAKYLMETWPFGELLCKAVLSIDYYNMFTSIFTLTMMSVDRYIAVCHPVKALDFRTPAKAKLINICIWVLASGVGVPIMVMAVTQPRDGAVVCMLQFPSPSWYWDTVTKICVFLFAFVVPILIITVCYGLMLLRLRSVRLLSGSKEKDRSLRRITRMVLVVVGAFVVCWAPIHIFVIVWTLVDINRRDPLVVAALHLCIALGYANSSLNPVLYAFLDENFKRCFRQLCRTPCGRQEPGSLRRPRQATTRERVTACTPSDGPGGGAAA
Kind of test: Elevated plus-maze test with opioid receptor antagonist naltrindole. The conditions noted are these: elevated plus-maze with or without naltrindole given 50 min before test; peptide oral 30 min before. It counts as in vivo.
From the text: as §1, §2
The peptide YHIEPV (SEQ ID NO:2) was orally administered as a sample to mice 30 minutes before an elevated plus-maze test, with or without WAY100135, an antagonist selective for 5-HT1A receptor (n=13-15). WAY100135 was administered 50 minutes before the elevated plus-maze test. […]

[5] abbreviates: Example 16, oral, SYLPPLTT 0.3, 1, SYLPPLT 0.1, 0.3, 1, YHIEPV 1, 3, 10, diazepam 1, 3, 10 mg/kg, result not split by dose.
[6] abbreviates: oral 0.1 mg/kg, 30 min before 5-min test, vs vehicle saline.
Setting [7] is: oral 0.3 mg/kg, 30 min before 5-min test, vs vehicle saline.
Setting [8] is: oral 1 mg/kg, 30 min before 5-min test, vs vehicle saline.
Setting [9] is: oral 10 mg/kg, 30 min before 5-min test, vs vehicle saline.

`CN1C(=O)CN=C(c2ccccc2)c2cc(Cl)ccc21` [diazepam, Diazepam, reference compound]: the “ratio of an open arm residence time” value in the test on ddY mouse (setting [5]) is recorded as “increase observed”.

Turning to `CN(C)CCCN1c2ccccc2CCc2ccccc21` [imipramine], in the test with ddY mice [1], the immobility time entry is reported as “reduces immobility time”.

As to FLLVK, the “ratio of an open arm residence time” value in the test with ddY mouse (setting [6]) is recorded as “increased”.

With LLVK, the “ratio of an open arm residence time” value with ddY mouse (setting [6]) is given as “increased”.

With LVK, the “ratio of an open arm residence time” value with ddY mouse (setting [6]) is “increased”.

With NYLLVKG, the “ratio of an open arm residence time” value in the test with ddY mouse (setting [6]) is recorded as “increased”.

Regarding Rubiscolin-6, the anxiolytic effect entry in test [2] is recorded as “has an anxiolytic effect”.

With SYLPPL, the “ratio of an open arm residence time” value in the test on ddY mouse (setting [7]), in the test with ddY mouse (setting [8]) and with ddY mouse (setting [9]) was “increased” each time.

As to SYLPPLT, the “ratio of an open arm residence time” value in the test with ddY mouse (setting [5]) is “increased”; with ddY mouse (setting [6]), “increased”; with ddY mouse (setting [7]), “increased”; with ddY mouse (setting [8]) it was “statistically significant”. For the same molecule, in test [3], the “anxiolytic-like effect mediated by serotonin 5-HT1A receptor” value is on record as “mediated by activation of serotonin 5-HT1A receptor”. Also, the immobility time entry with ddY mice [4] (oral 0.03 mg/kg), in the test with ddY mice [4] (oral 0.1 mg/kg) and with ddY mice [4] (oral 0.3 mg/kg) was “decrease” throughout.

On to SYLPPLTT, for which the “ratio of an open arm residence time” value with ddY mouse (setting [5]) is reported as “increased”; with ddY mouse (setting [7]), “increased”; with ddY mouse (setting [8]) it was “statistically significant”. Moreover, in test [3], the “anxiolytic-like effect mediated by serotonin 5-HT1A receptor” value is given as “mediated by activation of serotonin 5-HT1A receptor”.

Regarding WLLVK, the “ratio of an open arm residence time” value with ddY mouse (setting [6]) is “increased”.

Regarding YHIEPV, the “ratio of an open arm residence time” value is recorded as “increased” in the test on ddY mouse (setting [5]); “increased” in the test on ddY mouse (setting [8]); “statistically significant” in the test with ddY mouse (oral 3 mg/kg, 30 min before 5-min test, vs vehicle saline); “statistically significant” in the test with ddY mouse (setting [9]). For the same molecule, the “anxiolytic-like effect mediated by serotonin 5-HT1A receptor” value in test [3] is on record as “not mediated by activation of serotonin 5-HTopio1A receptor”. For the same molecule, in the test with δ opioid receptor, the “anxiolytic-like effect mediated by opioid receptor” value is on record as “mediated by activation 8-opioid receptor”.

As for YLL (NYLLVKG), in the test on ddY mouse (setting [6]), the “ratio of an open arm residence time” value is given as “increased”.

Regarding YLLAVK, the “ratio of an open arm residence time” value in the test with ddY mouse (setting [5]) and with ddY mouse (setting [6]) was “increased” each time.

Consider YLLNNK, for which the “ratio of an open arm residence time” value in the test on ddY mouse (setting [6]) was “increased”.

Consider YLLV, for which the “ratio of an open arm residence time” value in the test with ddY mouse (setting [6]) is “increased”.

For the molecule YLLVK, the “ratio of an open arm residence time” value in the test on ddY mouse (oral 0.03 mg/kg, 30 min before 5-min test, vs vehicle saline) is reported as “significantly increased”; in the test on ddY mouse (oral 0.1 mg/kg, 30 min before 5-min test, vs vehicle saline, 0.1 mg/kg) it was “significantly increased”.

On to YLLVR, for which, in the test with ddY mouse (setting [6]), the “ratio of an open arm residence time” value was “increased”.

For YLVK, the “ratio of an open arm residence time” value in the test on ddY mouse (setting [6]) is on record as “increased”.
